Measurements reported in patent US20150290354A1, “NONWOVEN FIBER MATERIALS” (NORTH CAROLINA STATE UNIVERSITY, priority 2012, published 2015).
Entries after “also recorded” stand apart in the source; their conditions may differ.

Tests used:
Assay in all cases: Minimum inhibitory / bactericidal concentration (MIC/MBC) test, 96-well serial dilution
Escherichia coli J53 = assay type: cell-based; conditions: n=6
Method: (§1) A minimum inhibitory concentration (MIC) test was conducted to measure the efficiency of certain silver-based antimicrobials against each bacterial isolate. A sterile round-bottom plastic 96-well plate containing […] of serially 1:2 diluted concentrations of antimicrobial solutions was inoculated with […] of 5-8×10^5 CFU/ml of each bacterial isolate. Each antimicrobial sample was tested at 15 serially diluted concentrations starting at their original highest concentration (0.015-1000 μg/ml).
(§2) After 24 h of incubation, 10 μl of the suspension from all of the clear wells (showing no bacterial growth) was dropped onto a MH agar plate and incubated for 24 h.
(§3) The mass concentration of these nanoparticles dispersed in water was 1.0 mg/mL The Silvadur ET solution containing 2.6-3.1 wt % silver ions was used at its original concentration (1.0 mg/mL). Silver nitrate was also dissolved in distilled water to create a 1 mg/mL solution. A gram negative (Escherichia coli J53) and gram positive (staphylococcus aureus—a common bacteria to cause skin infections) bacteria were employed for the experiment. Cation-adjusted Mueller-Hinton (MH) broth and agar (Difco Laboratories, Detroit, Mich., USA) were utilized to prepare bacterial cultivating medium. Isolated bacterial colonies were grown overnight in an incubator (37° C., 5% CO2) from frozen samples on an agar plate. For Agresistant bacteria (E. coli J53 [pMG101]), […] ampicillin sodium salt (Fisher Scientific, USA) was also added to the agar plates. The bacterial colony was suspended in phosphate buffered saline (PBS) to obtain 0.5 McFarland (10^5 CFU/ml). Microplates were incubated at 37° C. and shaken at 200 rpm for 24 hours. To control the accuracy of bacterial seeding density, bacteria were diluted in PBS at 103, 104, 105, and 106 and cultured overnight.
(§4) A gram negative (Escherichia coli J53) and gram positive (staphylococcusaureus, a common bacteria that causes skin infections) bacteria were employed for the experiment. Cation-adjusted Mueller-Hinton (MH) broth and agar (Difco Laboratories, Detroit, Mich., USA) were used to prepare bacterial cultivating medium. Isolated bacterial colonies were grown overnight in an incubator (37° C., 5% CO2) from frozen samples on an agar plate. For Ag-resistant bacteria (E. coli J53 [pMG101]) […] ampicillin sodium salt (Fisher Scientific, USA) was also added to the agar plates. The bacterial colony was suspended in phosphate buffered saline (PBS) to get 0.5 McFarland (10^5 CFU/ml). Microplates were incubated at 37° C. and shaken at 200 rpm for 24 h. To control the accuracy of bacterial seeding density, bacteria were diluted in PBS at 10^3, 10^4, 10^5, and 10^6 and plated overnight.
as §1, with “The minimum” for “A minimum”, “of silver based” for “of certain silver-based”, “μg/ml). […] After 24 h of incubation, 10 μl of the suspension from all of the clear wells (showing no bacterial growth) was dropped onto a MH agar plate and incubated for 24 h.” for “μg/ml).”

Staphylococcus aureus = assay type: cell-based; conditions: n=6
Method: as §1, §2, §3, §4
as §1, with “The minimum” for “A minimum”, “of silver based” for “of certain silver-based”, “μg/ml). […] After 24 h of incubation, 10 μl of the suspension from all of the clear wells (showing no bacterial growth) was dropped onto a MH agar plate and incubated for 24 h.” for “μg/ml).”

[1] = system: E. Coli J53pMG101 (silver resistant); assay type: cell-based, Escherichia coli; conditions: up to 1000 μg/ml
Method: as §1, §2
The mass concentration of these nanoparticles dispersed in water was 1.0 mg/mL The Silvadur ET solution containing 2.6-3.1 wt % silver ions was used at its original concentration (1.0 mg/mL). Silver nitrate was also dissolved in distilled water to create a 1 mg/mL solution. A gram negative (Escherichia coli J53) and gram positive (staphylococcus aureus—a common bacteria to cause skin infections) bacteria were employed for the experiment. Cation-adjusted Mueller-Hinton (MH) broth and agar (Difco Laboratories, Detroit, Mich., USA) were utilized to prepare bacterial cultivating medium. Isolated bacterial colonies were grown overnight in an incubator (37° C., 5% CO2) from frozen samples on an agar plate. […]

[2] = Table 1, Example 1, 24 h incubation

Structure (SMILES): O=[N+]([O-])[O-].[Ag+] [Silver nitrate]
- Minimum Inhibitory Concentrations (MIC) Escherichia coli J53 (Escherichia coli J53; [2]): 7.81 µg/mL
- Minimum Bacterial Concentrations (MBC) Escherichia coli J53 (Escherichia coli J53; Table 2, Example 1): 15.62 µg/mL
- Minimum Inhibitory Concentrations (MIC) Escherichia coli J53 (Escherichia coli J53; Table 9, Example 4): 7.81 µg/mL
- Minimum Bacterial Concentrations (MBC) Escherichia coli J53 (Escherichia coli J53; Table 10, Example 4): 15.62 µg/mL
- Minimum Inhibitory Concentrations (MIC) Staphylococcus aureus (Staphylococcus aureus; [2]): 15.62 µg/mL
- Minimum Bacterial Concentrations (MBC) Staphylococcus aureus (Staphylococcus aureus; Table 2, Example 1): 31.25 µg/mL
- Minimum Inhibitory Concentrations (MIC) Staphylococcus aureus (Staphylococcus aureus; Table 9, Example 4): 15.62 µg/mL
- Minimum Bacterial Concentrations (MBC) Staphylococcus aureus (Staphylococcus aureus; Table 10, Example 4): 31.25 µg/mL
- Observation of silver resistant E. coli J53 (pMG101) in the presence of the antimicrobial [1]: confirmed the resistance of E. coli J53 to silver; also recorded: confirmed its resistance to silver
